{"source": "patent US6861071B2", "about": "“Highly absorptive solid preparation” (Daiichi Pharmaceutical Co., Ltd., priority 2000, dated 2005)", "assay": "Promotion of dissolution of sitafloxacin by tartaric acid", "type": "physicochemical", "from_the_text": "Accordingly, tartaric acid is preferably added in an amount of 0.1 to 1 mole, preferably 1/6 mole to 0.7 mole, more preferably 0.25 to 0.5 mole, especially about 0.5 mole to 1 mole of a quinolone compound, particularly sitafloxacin.", "data": [{"smiles": "N[C@@H]1CN(c2c(F)cc3c(=O)c(C(=O)O)cn([C@@H]4C[C@@H]4F)c3c2Cl)CC12CC2", "note": "[sitafloxacin, (−)-7-[(7S)-7-amino-5-azaspirol[2.4]heptan-5-yl]-8-chloro-6-fluoro-1-[(1R,2S)-2-fluoro-1-cyclopropyl]-1,4-dihydro-4-oxo-3-quinolinecarboxylic acid]", "values": [{"measurement": "Effect for promoting dissolution of sitafloxacin", "setting": "0.1 time molar amount (18.3 mg) of tartaric acid together with 500 mg of sitafloxacin (as an anhydrate)", "value": "marked improving effects"}, {"measurement": "Effect for promoting dissolution of sitafloxacin", "setting": "0.5 time molar amount (92 mg) of tartaric acid in combination with 500 mg of sitafloxacin", "value": "effect becomes maximum"}]}]}
